Measured values: paper PMC10574154, “Antioxidant and Anti-Aging Phytoconstituents from Faucaria tuberculosa: In Vitro and In Silico Studies” (Molecules, 2023)
Values after ≈ are worked out from the molar mass of the structure shown.

Key:
[1] = Ferric reducing/antioxidant power (FRAP) assay; format: biochemical; conditions: mean ± SD (n = 3)
Experimental: The antioxidant activity of the isolated compounds was determined using ABTS and FRAP assays in triplicate, and the average values were considered.
Herein, antioxidant potential was measured based on the samples’ ability to reduce ferric to ferrous ion. This method relies on the reduction of ferricyanide relative to the sample. Samples (1 mL) were mixed with 2.5 mL of each of sodium phosphate buffer and K3Fe (CN)6, and then the reaction mixture was incubated (50 °C, 20 min). Afterward, 2.5 mL of trichloroacetic acid was added, and centrifugation (1000× g, 10 min) was carried out. Some 2.5 mL of the supernatant solution and an equal amount of deionized H2O and 0.5 mL of ferric chloride were then mixed, and the absorbance was recorded at 700 nm.

[2] = ABTS radical scavenging assay; format: biochemical; conditions: mean ± SD (n = 3)

COc1cc(-c2oc3cc(O)cc(O)c3c(=O)c2OC2OC(COC3OC(C)C(OC4OC(C)C(O)C(O)C4O)C(O)C3O)C(O)C(O)C2O)ccc1O (stereo not drawn) [Compound 5, Isorhamnetin 3-O-[α-rhamnopyranosyl-(1→4)-α-rhamnopyranosyl-(1→6)-β-glucopyranoside]]
IC50 Value FRAP Assay [1]: 35.04 ± 2.89 µg/mL (≈ 45.5 µM) | IC50 Value ABTS Assay [2]: 18.19 ± 2.94 µg/mL (≈ 23.6 µM)

O=C1O[C@H]([C@@H](O)CO)C(O)=C1O [Ascorbic acid, reference compound]
IC50 Value FRAP Assay [1]: 20.86 ± 1.28 µg/mL (≈ 118 µM) | IC50 Value ABTS Assay [2]: 10.67 ± 0.85 µg/mL (≈ 60.6 µM)

Oc1cc(O)cc(O)c1 [Compound 1, phloroglucinol]
IC50 Value FRAP Assay [1]: 12.89 ± 0.93 µg/mL (≈ 102 µM) | IC50 Value ABTS Assay [2]: 6.44 ± 0.47 µg/mL (≈ 51.1 µM)

OC[C@H]1O[C@@H](Oc2cc(O)cc(O)c2)[C@H](O)[C@@H](O)[C@@H]1O [Compound 2, 3,5-dihydroxyphenyl β-D-glucopyranoside]
IC50 Value FRAP Assay [1]: 64.52 ± 4.15 µg/mL (≈ 224 µM) | IC50 Value ABTS Assay [2]: 43.40 ± 3.18 µg/mL (≈ 151 µM)

COc1cc(-c2oc3cc(O)cc(O)c3c(=O)c2OC2OC(COC3OC(C)C(O)C(O)C3O)C(O)C(O)C2O)ccc1O (stereo not shown) [Compound 3, isorhamnetin 3-O-rutinoside]
IC50 Value FRAP Assay [1]: 25.24 ± 2.03 µg/mL (≈ 40.4 µM) | IC50 Value ABTS Assay [2]: 12.24 ± 0.61 µg/mL (≈ 19.6 µM)
